The values that follow come from article PMC4261083, “An atypical residue in the pore of Varroa destructor GABA-activated RDL receptors affects picrotoxin block and thymol modulation” (Insect Biochemistry and Molecular Biology, 2014).

Positions count from the first letter of the chain named. Bounds are passed on as bounds.

Holding throughout (experiment): Picrotoxin inhibition of GABA responses, two electrode voltage clamp in Xenopus oocytes
What all share (assay type): cell-based

The target of test [1] is T1, wild type Drosophila RDL receptor (Drosophila melanogaster, UniProt P25123).
T1 construct: expressed in transfected cells; host or cells: Xenopus laevis oocytes injected with cRNA
T1 sequence (P25123 45-606): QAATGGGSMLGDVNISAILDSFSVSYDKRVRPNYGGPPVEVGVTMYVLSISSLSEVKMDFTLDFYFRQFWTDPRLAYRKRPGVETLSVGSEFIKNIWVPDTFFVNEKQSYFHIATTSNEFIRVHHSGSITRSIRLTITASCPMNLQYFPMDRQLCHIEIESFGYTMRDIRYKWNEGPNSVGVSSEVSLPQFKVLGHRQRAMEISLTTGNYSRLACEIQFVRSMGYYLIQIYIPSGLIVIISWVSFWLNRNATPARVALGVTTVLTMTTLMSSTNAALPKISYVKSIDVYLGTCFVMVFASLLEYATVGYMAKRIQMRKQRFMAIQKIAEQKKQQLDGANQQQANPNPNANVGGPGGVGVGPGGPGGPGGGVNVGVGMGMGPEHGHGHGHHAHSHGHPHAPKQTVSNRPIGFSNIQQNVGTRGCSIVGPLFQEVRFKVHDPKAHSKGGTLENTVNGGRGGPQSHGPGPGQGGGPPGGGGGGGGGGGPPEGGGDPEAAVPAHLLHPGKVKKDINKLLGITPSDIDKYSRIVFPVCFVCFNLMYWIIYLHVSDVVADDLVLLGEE
The method, then: (§1) X. laevis oocyte-positive females were purchased from NASCO (Fort Atkinson, Wisconsin, USA) and maintained according to standard methods. Harvested stage V-VI Xenopus oocytes were washed in four changes of ND96 (96 mM NaCl, 2 mM KCl, 1 mM MgCl2, 1 mM CaCl2, 5 mM HEPES, pH 7.5), de-folliculated in 1.5 mg ml^−1 collagenase Type 1A for approximately 2 h, washed again in four changes of ND96 and stored in ND96 containing 2.5 mM sodium pyruvate, 0.7 mM theophylline and […].
(§2) Drosophila RDL subunit cDNA (kindly gifted from N.Millar) was subcloned into pGEMHE for oocyte expression as previously described ([McGonigle and Lummis, 2010], [Millar et al., 1994]). Site directed mutagenesis was performed with the QuikChange mutagenesis kit (Agilent, La Jolla, CA). cRNA was transcribed in vitro from linearised pGEMHE cDNA template using the mMessage mMachine T7 Transcription kit (Ambion, Austin, Texas, USA). Stage V and VI oocytes were injected with 5 ng cRNA, incubated at 18 °C, and currents recorded 18–24 h post-injection.
(§3) Xenopus oocytes were clamped at −60 mV using an OC-725 amplifier (Warner Instruments, Connecticut, USA), Digidata 1322A and the Strathclyde Electrophysiology Software Package (Department of Physiology and Pharmacology, University of Strathclyde, UK), or using the Roboocyte (MultiChannel Systems). Currents were recorded at 5 kHz and filtered at a frequency of 1 kHz. Micro-electrodes were fabricated from borosilicate glass (GC120TF-10, Harvard Apparatus, Edenbridge, Kent, UK) using a one stage horizontal pull (P-87, Sutter Instrument Company, California, USA) and filled with 3 M KCl. Pipette resistances ranged from 1.0 to 2.0 MΩ. Oocytes were perfused with ND96 at a constant rate of 12 ml min^−1. Drug application was via a simple gravity fed system calibrated to run at the same rate.
(§4) Analysis and curve fitting was performed using Prism v5 (GraphPad Software, San Diego, California, USA). Concentration-response data for each oocyte was normalised to the maximum current for that oocyte. The mean and S.E.M. for a series of oocytes were fitted to the four parameter logistic equation in Prism.

Test [2] has as its target T2, 4M2 mutant Drosophila RDL receptor (N-7′H, T6′M, A20′S and A21′Q) (Drosophila melanogaster, UniProt P25123, A319S/A320Q/N292H/T305M).
T2 construct: expressed in transfected cells; host or cells: Xenopus laevis oocytes injected with cRNA
T2 sequence (P25123 45-606 N292H/T305M/A319S/A320Q): T1 sequence (P25123 45-606) with N248H, T261M, A275S, A276Q
The conditions noted are these: 4M2 RDL. On the procedure: as §1, §2, §3, §4

The target of test [3] is T3, A20′S mutant Drosophila RDL receptor (Drosophila melanogaster, UniProt P25123, A319S).
T3 construct: expressed in transfected cells; host or cells: Xenopus laevis oocytes injected with cRNA
T3 sequence (P25123 45-606 A319S): T1 sequence (P25123 45-606) with A275S
The method, then:
as §1, §2, §3, §4

As to picrotoxin, the IC50 in test [1] was 180 nM; in test [2] (inhibition of GABA responses, read-out: Picrotoxin pIC50 (converted)) it was > 100000 nM; in test [3], 46 nM. Besides, the “Picrotoxin pIC50” value is given as 6.75 ± 0.22 in test [1] and 7.33 ± 0.13 in test [3]. Also, the “Sensitivity to PTX” value in test [2] (PTX up to 100 μM) is “insensitive”.
